Measurements reported in patent US7700522B2, “α-Oxygenated or α-thiolated carboxylic acid phenethylamide derivatives” (Syngenta Crop Protection, Inc., priority 2001, dated 2010).

Experiments:
Format in all cases: in vivo
[1] = test system: Plasmopara viticola; test: D-1b residual-curative action against Plasmopara viticola on vines; settings: test D-1b, vine seedlings, sprayed 24 hours after infection, untreated plants attack 80-100%, read-out: inhibit fungal infestations
Protocol: (§1) D-1: Action Against Plasmopara Viticola on Vines
b) Residual-curative Action
Vine seedlings are infected at the 4- to 5-leaf stage with a sporangia suspension of the fungus. After incubation for 24 hours in a humidity chamber at 95-100% relative humidity and +20° C., the infected plants are dried and sprayed with a spray mixture (0.02% active ingredient) prepared from a wettable powder formulation of the test compound. After the spray coating has dried, the treated plants are placed in the humidity chamber again. Fungus infestation is evaluated 6 days after infection.

[2] = test system: Phytophthora; test: D-3a residual-protective action against Phytophthora on potato plants; settings: test D-3a, potato plants (Bintje), sprayed 48 hours before infection, untreated plants attack 80 to 100%, read-out: inhibit fungal infestations
Protocol: (§2) D-3: Action Against Phytophthora on Potato Plants
(§3) a) Residual-protective Action
(§4) 2-3 week old potato plants (Bintje variety) are sprayed with a spray mixture (0.02% active ingredient) prepared from a wettable powder formulation of the test compound. After 48 hours, the treated plants are infected with a sporangia suspension of the fungus. Fungus infestation is evaluated after incubation of the infected plants for 4 days at 90-100% relative humidity and +20° C.

[3] = test system: Phytophthora; test: D-2a residual-protective action against Phytophthora on tomato plants; settings: test D-2a, sprayed 48 hours before infection, untreated plants attack 80-100%, read-out: inhibit fungal infestations
Protocol: (§5) D-2: Action Against Phytophthora on Tomato Plants
as §3
(§6) After a cultivation period of 3 weeks, tomato plants are sprayed with a spray mixture (0.02% active ingredient) prepared from a wettable powder formulation of the test compound. After 48 hours, the treated plants are infected with a sporangia suspension of the fungus. Fungus infestation is evaluated after incubation of the infected plants for 5 days at 90-100% relative humidity and +20° C.

[4] = test system: Plasmopara viticola; test: D-1a residual-protective action against Plasmopara viticola on vines; settings: test D-1a, vine seedlings, sprayed 24 hours before infection, untreated plants attack 80-100%, read-out: inhibit fungal infestations
Protocol: as §1, §3
Vine seedlings are sprayed at the 4- to 5-leaf stage with a spray mixture (0.02% active ingredient) prepared from a wettable powder formulation of the test compound. After 24 hours, the treated plants are infected with a sporangia suspension of the fungus. Fungus infestation is evaluated after incubation for 6 days at 95-100% relative humidity and +20° C.

[5] = test system: Phytophthora; test: D-2b systemic action against Phytophthora on tomato plants; settings: test D-2b, soil watering 96 hours before infection, untreated plants attack 80-100%, read-out: inhibit fungal infestations
Protocol: as §5
as §6, with “watered” for “sprayed”, “ingredient based on the volume of the soil)” for “ingredient)”, “compound. […]” for “compound.”, “96” for “48”, “4” for “5”

[6] = test system: Phytophthora; test: D-3b systemic action against Phytophthora on potato plants; settings: test D-3b, potato plants (Bintje), soil watering 48 hours before infection, untreated plants attack 80 to 100%, read-out: inhibit fungal infestations
Protocol: as §2
as §4, with “watered” for “sprayed”, “ingredient based on the volume of the soil)” for “ingredient)”, “compound. […]” for “compound.”

Measured: inhibition at 200 ppm

C#CCOc1ccc(CCNC(=O)C(Cc2ccccc2)OCC#C)cc1OC (stereo not shown) [Compound E1.03, N-[2-(3-methoxy-4-prop-2-ynyloxy-phenyl)-ethyl]-3-phenyl-2-prop-2-ynyloxy-propionamide]
80 to 100%: all assays above

C#CCOc1ccc(CCNC(=O)C(Cc2ccc(F)cc2)OCC#C)cc1OC (stereo not shown) [Compound E1.06, 3-(4-fluoro-phenyl)-N-[2-(3-methoxy-4-prop-2-ynyloxy-phenyl)-ethyl]-2-prop-2-ynyloxy-propionamide]
80 to 100%: [2] | [3] | [5] | [6]

C#CCOc1ccc(CCNC(=O)C(Cc2ccc(Cl)cc2)OCC#C)cc1OC (stereo not shown) [Compound E1.10, 3-(4-chloro-phenyl)-N-[2-(3-methoxy-4-prop-2-ynyloxy-phenyl)-ethyl]-2-prop-2-ynyloxy-propionamide]
80 to 100%: all assays above

C#CCOc1ccc(CCNC(=O)C(Cc2ccc(Br)cc2)OCC#C)cc1OC (stereo not shown) [Compound E1.15, 3-(4-bromo-phenyl)-N-[2-(3-methoxy-4-prop-2-ynyloxy-phenyl)-ethyl]-2-prop-2-ynyloxy-propionamide]
80 to 100%: all assays above

C#CCOc1ccc(CCNC(=O)C(Cc2ccc(C)cc2)OCC#C)cc1OC (stereo not shown) [Compound E1.18, N-[2-(3-methoxy-4-prop-2-ynyloxy-phenyl)-ethyl]-2-prop-2-ynyloxy-3-p-tolyl-propionamide]
80 to 100%: [1] | [4]

C#CCOc1ccc(CCNC(=O)C(Cc2ccc(CC)cc2)OCC#C)cc1OC (stereo not shown) [Compound E1.22, 3-(4-ethyl-phenyl)-N-[2-(3-methoxy-4-prop-2-ynyloxy-phenyl)-ethyl]-2-prop-2-ynyloxy-propionamide]
80 to 100%: [1] | [3] | [4] | [5]
